{"source": "patent US9610258B2", "about": "“Methods of stabilizing the extracellular matrix and compositions therefor” (priority 2011, dated 2017)", "key": {"[1]": {"assay": "12-month aging of topical cream, isothiocyanate concentration by HPLC", "format": "physicochemical", "conditions": "Table 11 cream; for isothiocyanate concentration in cream, 4 months: aged 4 months; for isothiocyanate concentration in cream, 8 months: aged 8 months; for isothiocyanate concentration in cream, 12 months: aged 12 months; for isothiocyanate concentration in cream, Original: time 0", "procedure": "To determine the effects of aging of the topical cream formulations on the potency of the included bioactives, a study was performed as described in Table 12. Shown is a 12-month aging of the orthomolecular transdermal formulation as described in Table 11. Bio-encapsulation of the isothiocyanates, such as cyclodextrin R-sulforaphane, is not commonly available, and can suffer instability depending on the cream base used. Since topical formulations are applied to the skin, consideration of noxious volatile sulfur emissions and dermal irritation, especially from broccoli, wasabi, and mustard extracts, limit their amount and source. Table 12 illustrates that stabilization of orthomolecular ingredients such as isothiocyanates can be accomplished in a topical formulation."}, "breast cancer": {"tested_on": "breast cancer", "conditions": "women living at least one year after breast cancer diagnosis; cited from earlier work"}, "ear edema": {"tested_on": "ear edema", "conditions": "cited from earlier work"}, "[2]": {"tested_on": "oxazolone-induced ear edema in BALB/c mice", "assay": "Oxazolone-induced murine ear edema, second formalized study", "format": "in vivo", "conditions": "for reduction / inhibition of oxazolone-induced ear edema: as stated in running text per treatment group; for Change in Ear Weight, Mean: group mean, 8 mice, acetone vehicle 74.6; for Left Ear weight / Right Ear weight / ΔWt., change in mouse ear weight: individual mice, 24 h after oxazolone challenge; for % Inhibition of change in ear weight: vs acetone vehicle group", "procedure": "The present example assesses the anti-inflammatory activity of a topically applied formulation in accordance with one aspect of the present invention in a prophylactic and therapeutic model of ear edema in BALB/c mice. […] Louis, Mo., USA) to 20 mL acetone (Acros Organics, Cat. 42324-0010, lot B4522107, Thermo Fisher Scientific, Princeton, N.J., USA). The mixture was gently heated until a bright yellow color. 52 BALB/c mice (Harlan Sprague-Dawley, Inc., Indianapolis, Ind., USA, male, 6-7 weeks old) were received, individually examined and housed in six cages of eight mice each and one cage containing four mice. No clinical signs of disease or distress were observed. The mice were placed in quarantine with daily inspections. […] The mixture was gently heated until a bright yellow color. […] This equated to 0.336 mg of cream per ear. 0.6 mg betamethasone-21-valerate (Sigma Chem., Cat. […] PZ0008, lot 020M47044) was suspended in […] dH2O (1 mg/mL) for Group 4. […] Twenty-four hours after oxazolone challenge, the mice were euthanized, and the ears were removed and weighed."}, "[3]": {"conditions": "in topical formulations; cited from earlier work"}, "mice": {"tested_on": "mice", "conditions": "mouse, in vivo; cited from earlier work"}}, "note": "“And” between values parts separate entries of the source, which are not always exact repeats. Equal entries are not always repeated.", "data": [{"molecule": "C[S@@+]([O-])C=CCCN=C=S", "note": "[Sulforaphene, 4-isothiocyanato-(1R)-(methylsulphinyl)-1-(E)-butene]", "values": [{"measurement": "isothiocyanate concentration in cream, 4 months", "setting": "[1]", "result": 1.729, "unit": "Mg/gm"}, {"measurement": "isothiocyanate concentration in cream, 8 months", "setting": "[1]", "result": 0.308, "unit": "Mg/gm"}, {"measurement": "isothiocyanate concentration in cream, 12 months", "setting": "[1]", "result": 0.233, "unit": "Mg/gm"}, {"measurement": "isothiocyanate concentration in cream, Original", "setting": "[1]", "result": 0.551, "unit": "Mg/gm"}]}, {"molecule": "CC(=O)Oc1ccccc1C(=O)O", "note": "[aspirin]", "values": [{"measurement": "decrease in distant recurrence and breast cancer death", "setting": "breast cancer", "result": "~50", "unit": "%"}]}, {"molecule": "Oc1ccc(/C=C/c2cc(O)cc(O)c2)cc1", "note": "[trans-resveratrol, 3,5,4′-trihydroxy-trans-stilbene]", "values": [{"measurement": "inhibition of edema", "setting": "ear edema; commercially-purified, at similar concentration to that of the topical formulation", "result": 35, "unit": "%"}]}, {"molecule": "betamethasone-21-valerate [Topical Betamethasone]", "values": [{"measurement": "reduction / inhibition of oxazolone-induced ear edema", "setting": "[2]", "result": 69, "unit": "%"}, {"measurement": "Change in Ear Weight, Mean", "setting": "[2]", "result": 23.7, "unit": "mg"}, {"measurement": "Left Ear weight", "setting": "[2]", "result": "22.10 mg and 23.20 mg and 24.56 mg and 20.44 mg and 21.26 mg and 22.60 mg (2×) and 25.74 mg"}, {"measurement": "Right Ear weight", "setting": "[2]", "result": "48.00 mg and 45.52 mg and 48.66 mg and 47.03 mg and 41.34 mg and 45.70 mg and 49.51 mg and 46.30 mg"}, {"measurement": "ΔWt., change in mouse ear weight", "setting": "[2]", "result": "25.90 mg and 22.32 mg and 24.10 mg and 26.59 mg and 20.08 mg and 23.10 mg and 26.91 mg and 20.56 mg"}, {"measurement": "% Inhibition of change in ear weight", "setting": "[2]", "result": 68, "unit": "%"}]}, {"molecule": "C[S@+]([O-])CCCCN=C=S", "note": "[L-Sulforaphane]", "values": [{"measurement": "isothiocyanate concentration in cream, 4 months", "setting": "[1]", "result": 0.358, "unit": "Mg/gm"}, {"measurement": "isothiocyanate concentration in cream, 8 months", "setting": "[1]", "result": 1.105, "unit": "Mg/gm"}, {"measurement": "isothiocyanate concentration in cream, 12 months", "setting": "[1]", "result": 1.841, "unit": "Mg/gm"}, {"measurement": "isothiocyanate concentration in cream, Original", "setting": "[1]", "result": 0.606, "unit": "Mg/gm"}]}, {"molecule": "C[S+]([O-])CCCCN=C=S", "note": "(centres unmarked) [Sulforaphane]", "values": [{"measurement": "time to decline to a zero level", "setting": "[3]", "result": 30, "unit": "days"}]}, {"molecule": "C[S+]([O-])CCCCCCN=C=S", "note": "(centres unmarked) [6 MITC, 6-(methylsulfinyl)hexyl isothiocyanate]", "values": [{"measurement": "isothiocyanate concentration in cream, 4 months", "setting": "[1]", "result": 0.341, "unit": "Mg/gm"}, {"measurement": "isothiocyanate concentration in cream, 8 months", "setting": "[1]", "result": 0.614, "unit": "Mg/gm"}, {"measurement": "isothiocyanate concentration in cream, 12 months", "setting": "[1]", "result": 0.571, "unit": "Mg/gm"}, {"measurement": "isothiocyanate concentration in cream, Original", "setting": "[1]", "result": 0.123, "unit": "Mg/gm"}]}, {"molecule": "COc1ccc2c(c1)c(CC(=O)O)c(C)n2C(=O)c1ccc(Cl)cc1", "note": "[indomethacin]", "values": [{"measurement": "inhibition / reduction of edema reported by studies of individual topical components", "setting": "ear edema; research grade trans-resveratrol, indomethacin 0.5 mg/ear", "result": 45, "unit": "%"}]}, {"molecule": "COc1cc(/C=C/C(=O)CC(=O)/C=C/c2ccc(O)c(OC)c2)ccc1O", "note": "[Curcumin]", "values": [{"measurement": "Oral LD50", "setting": "mice", "result": "> 2", "unit": "g/kg body weight"}]}, {"molecule": "Cc1ccc(-c2cc(C(F)(F)F)nn2-c2ccc(S(N)(=O)=O)cc2)cc1", "note": "[Oral Celecoxib, celecoxib]", "values": [{"measurement": "reduction / inhibition of oxazolone-induced ear edema", "setting": "[2]", "result": 37, "unit": "%"}, {"measurement": "Change in Ear Weight, Mean", "setting": "[2]", "result": 46.7, "unit": "mg"}, {"measurement": "Left Ear weight", "setting": "[2]", "result": "27.52 mg and 25.00 mg and 22.00 mg and 27.84 mg and 30.30 mg and 26.29 mg and 23.89 mg and 23.84 mg"}, {"measurement": "Right Ear weight", "setting": "[2]", "result": "79.55 mg and 68.55 mg (2×) and 72.46 mg and 81.00 mg and 75.32 mg and 72.39 mg and 62.48 mg"}, {"measurement": "ΔWt., change in mouse ear weight", "setting": "[2]", "result": "52.03 mg and 43.55 mg and 46.55 mg and 44.62 mg and 50.70 mg and 49.03 mg and 48.50 mg and 38.64 mg"}, {"measurement": "% Inhibition of change in ear weight", "setting": "[2]", "result": 37, "unit": "%"}]}]}
